Tests used:
Assay in all cases: biochemical
Parameters in all cases: species or system HEK293/K-562/placenta mixed human extract; Kinobeads chemoproteomic competition binding, quantified by TMT LC-MS/MS, dose response up to 20 uM
PDXK = PDXK (Homo sapiens, UniProt O00764)
MARK1 = MARK1 (Homo sapiens, UniProt Q9P0L2)
PKN1 = PKN1 (Homo sapiens, UniProt Q16512)
FLT4 = FLT4 (Homo sapiens, UniProt P35916)
WNK1 = WNK1 (Homo sapiens, UniProt Q9H4A3)
MAP2K2 = MAP2K2 (Homo sapiens, UniProt P36507)
PRKAB1 = PRKAB1 (Homo sapiens, UniProt Q9Y478)
CSNK2A2 = CSNK2A2 (Homo sapiens, UniProt P19784)
ERBB4 = ERBB4 (Homo sapiens, UniProt Q15303)
PHKA2 = PHKA2 (Homo sapiens, UniProt P46019)
CDC42BPG = CDC42BPG (Homo sapiens, UniProt Q6DT37)
NTRK1 = NTRK1 (Homo sapiens, UniProt P04629)
GSK3A = GSK3A (Homo sapiens, UniProt P49840)
DAPK1 = DAPK1 (Homo sapiens, UniProt P53355)
PKMYT1 = PKMYT1 (Homo sapiens, UniProt Q99640)
EIF2AK4 = EIF2AK4 (Homo sapiens, UniProt Q9P2K8)
HIPK2 = HIPK2 (Homo sapiens, UniProt Q9H2X6)
TNK2 = TNK2 (Homo sapiens, UniProt Q07912)
ULK3 = ULK3 (Homo sapiens, UniProt Q6PHR2)
MAST3 = MAST3 (Homo sapiens, UniProt O60307)
CDK7 = CDK7 (Homo sapiens, UniProt P50613)

Measured: IC50

Sequence of TNK2 (Q07912 whole entry): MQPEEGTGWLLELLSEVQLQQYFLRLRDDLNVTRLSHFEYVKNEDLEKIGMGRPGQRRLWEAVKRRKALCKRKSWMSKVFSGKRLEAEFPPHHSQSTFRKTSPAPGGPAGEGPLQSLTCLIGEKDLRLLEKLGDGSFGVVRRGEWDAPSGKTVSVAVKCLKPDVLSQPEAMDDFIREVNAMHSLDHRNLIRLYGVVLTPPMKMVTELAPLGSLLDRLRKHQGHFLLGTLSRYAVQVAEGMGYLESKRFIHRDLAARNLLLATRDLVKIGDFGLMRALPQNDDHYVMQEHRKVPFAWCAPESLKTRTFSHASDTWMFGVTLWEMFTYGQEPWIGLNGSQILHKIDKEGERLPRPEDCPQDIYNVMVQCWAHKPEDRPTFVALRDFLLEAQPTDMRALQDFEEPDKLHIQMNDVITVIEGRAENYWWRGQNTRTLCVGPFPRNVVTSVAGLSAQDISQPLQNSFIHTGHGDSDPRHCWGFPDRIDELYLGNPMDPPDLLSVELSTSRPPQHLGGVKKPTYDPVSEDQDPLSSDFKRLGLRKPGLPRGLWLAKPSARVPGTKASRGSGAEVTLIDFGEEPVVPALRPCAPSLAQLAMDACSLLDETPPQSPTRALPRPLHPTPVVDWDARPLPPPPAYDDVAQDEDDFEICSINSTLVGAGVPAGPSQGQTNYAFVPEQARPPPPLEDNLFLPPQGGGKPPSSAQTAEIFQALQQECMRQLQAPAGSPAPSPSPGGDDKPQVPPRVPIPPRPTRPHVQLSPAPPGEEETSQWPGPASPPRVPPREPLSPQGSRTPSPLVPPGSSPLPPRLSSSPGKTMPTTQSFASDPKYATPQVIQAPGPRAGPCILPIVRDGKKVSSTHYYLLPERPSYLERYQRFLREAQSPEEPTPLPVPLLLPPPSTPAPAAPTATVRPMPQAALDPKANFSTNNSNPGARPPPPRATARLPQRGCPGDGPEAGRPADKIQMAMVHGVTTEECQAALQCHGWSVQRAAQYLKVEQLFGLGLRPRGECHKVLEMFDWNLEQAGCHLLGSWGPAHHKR
Sequence of EIF2AK4 (Q9P2K8 whole entry): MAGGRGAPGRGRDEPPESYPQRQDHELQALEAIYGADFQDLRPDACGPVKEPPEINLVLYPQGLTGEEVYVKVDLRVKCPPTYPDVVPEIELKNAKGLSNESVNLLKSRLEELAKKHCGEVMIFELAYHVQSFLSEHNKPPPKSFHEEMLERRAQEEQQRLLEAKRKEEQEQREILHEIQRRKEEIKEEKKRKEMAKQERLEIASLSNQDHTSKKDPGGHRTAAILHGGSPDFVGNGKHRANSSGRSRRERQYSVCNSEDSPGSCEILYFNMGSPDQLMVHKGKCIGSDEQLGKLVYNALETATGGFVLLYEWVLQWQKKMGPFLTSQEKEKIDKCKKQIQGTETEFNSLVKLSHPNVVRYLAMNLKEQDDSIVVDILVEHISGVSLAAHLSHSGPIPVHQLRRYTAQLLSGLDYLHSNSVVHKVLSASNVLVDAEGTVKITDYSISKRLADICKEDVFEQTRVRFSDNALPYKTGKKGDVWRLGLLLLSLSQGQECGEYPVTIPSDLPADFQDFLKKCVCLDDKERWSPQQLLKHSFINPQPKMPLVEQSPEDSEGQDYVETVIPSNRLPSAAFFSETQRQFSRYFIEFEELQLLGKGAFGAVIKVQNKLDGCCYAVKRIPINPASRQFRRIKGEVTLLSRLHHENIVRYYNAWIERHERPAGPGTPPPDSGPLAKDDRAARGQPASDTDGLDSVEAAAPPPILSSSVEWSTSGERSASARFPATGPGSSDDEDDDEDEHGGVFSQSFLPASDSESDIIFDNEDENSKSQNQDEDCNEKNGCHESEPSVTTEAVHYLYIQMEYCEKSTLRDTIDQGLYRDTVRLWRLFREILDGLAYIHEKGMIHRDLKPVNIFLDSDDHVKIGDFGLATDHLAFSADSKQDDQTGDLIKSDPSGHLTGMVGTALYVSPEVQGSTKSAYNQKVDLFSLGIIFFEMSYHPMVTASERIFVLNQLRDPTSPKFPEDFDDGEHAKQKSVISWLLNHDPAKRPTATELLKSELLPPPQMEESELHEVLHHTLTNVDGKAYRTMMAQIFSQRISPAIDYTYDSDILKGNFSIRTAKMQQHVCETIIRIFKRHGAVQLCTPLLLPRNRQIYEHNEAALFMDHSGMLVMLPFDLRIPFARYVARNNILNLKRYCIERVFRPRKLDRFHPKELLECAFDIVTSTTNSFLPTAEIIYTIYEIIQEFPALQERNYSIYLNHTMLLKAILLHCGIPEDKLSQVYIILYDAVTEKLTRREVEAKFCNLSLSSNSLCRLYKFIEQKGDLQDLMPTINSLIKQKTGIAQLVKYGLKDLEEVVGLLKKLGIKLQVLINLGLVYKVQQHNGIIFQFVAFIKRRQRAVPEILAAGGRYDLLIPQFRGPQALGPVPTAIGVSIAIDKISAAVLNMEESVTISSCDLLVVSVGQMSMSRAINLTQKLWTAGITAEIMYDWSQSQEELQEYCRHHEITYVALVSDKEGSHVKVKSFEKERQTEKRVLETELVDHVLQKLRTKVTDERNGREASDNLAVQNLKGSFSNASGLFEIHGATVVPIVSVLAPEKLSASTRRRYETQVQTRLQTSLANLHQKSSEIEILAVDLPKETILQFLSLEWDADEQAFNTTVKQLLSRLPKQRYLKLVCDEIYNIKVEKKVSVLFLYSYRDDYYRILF
Sequence of ULK3 (Q6PHR2 whole entry): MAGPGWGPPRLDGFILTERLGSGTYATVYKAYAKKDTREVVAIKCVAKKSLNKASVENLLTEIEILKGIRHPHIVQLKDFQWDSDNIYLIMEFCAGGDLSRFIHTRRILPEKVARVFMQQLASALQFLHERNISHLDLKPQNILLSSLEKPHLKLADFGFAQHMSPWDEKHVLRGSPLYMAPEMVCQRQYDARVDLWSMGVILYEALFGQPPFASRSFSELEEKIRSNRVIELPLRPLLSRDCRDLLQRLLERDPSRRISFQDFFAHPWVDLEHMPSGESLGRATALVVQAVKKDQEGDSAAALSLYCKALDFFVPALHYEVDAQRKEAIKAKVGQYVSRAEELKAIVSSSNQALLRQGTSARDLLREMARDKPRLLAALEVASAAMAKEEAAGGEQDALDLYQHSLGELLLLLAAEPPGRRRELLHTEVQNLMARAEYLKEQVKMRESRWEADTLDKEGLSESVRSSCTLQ
Sequence of DAPK1 (P53355 whole entry): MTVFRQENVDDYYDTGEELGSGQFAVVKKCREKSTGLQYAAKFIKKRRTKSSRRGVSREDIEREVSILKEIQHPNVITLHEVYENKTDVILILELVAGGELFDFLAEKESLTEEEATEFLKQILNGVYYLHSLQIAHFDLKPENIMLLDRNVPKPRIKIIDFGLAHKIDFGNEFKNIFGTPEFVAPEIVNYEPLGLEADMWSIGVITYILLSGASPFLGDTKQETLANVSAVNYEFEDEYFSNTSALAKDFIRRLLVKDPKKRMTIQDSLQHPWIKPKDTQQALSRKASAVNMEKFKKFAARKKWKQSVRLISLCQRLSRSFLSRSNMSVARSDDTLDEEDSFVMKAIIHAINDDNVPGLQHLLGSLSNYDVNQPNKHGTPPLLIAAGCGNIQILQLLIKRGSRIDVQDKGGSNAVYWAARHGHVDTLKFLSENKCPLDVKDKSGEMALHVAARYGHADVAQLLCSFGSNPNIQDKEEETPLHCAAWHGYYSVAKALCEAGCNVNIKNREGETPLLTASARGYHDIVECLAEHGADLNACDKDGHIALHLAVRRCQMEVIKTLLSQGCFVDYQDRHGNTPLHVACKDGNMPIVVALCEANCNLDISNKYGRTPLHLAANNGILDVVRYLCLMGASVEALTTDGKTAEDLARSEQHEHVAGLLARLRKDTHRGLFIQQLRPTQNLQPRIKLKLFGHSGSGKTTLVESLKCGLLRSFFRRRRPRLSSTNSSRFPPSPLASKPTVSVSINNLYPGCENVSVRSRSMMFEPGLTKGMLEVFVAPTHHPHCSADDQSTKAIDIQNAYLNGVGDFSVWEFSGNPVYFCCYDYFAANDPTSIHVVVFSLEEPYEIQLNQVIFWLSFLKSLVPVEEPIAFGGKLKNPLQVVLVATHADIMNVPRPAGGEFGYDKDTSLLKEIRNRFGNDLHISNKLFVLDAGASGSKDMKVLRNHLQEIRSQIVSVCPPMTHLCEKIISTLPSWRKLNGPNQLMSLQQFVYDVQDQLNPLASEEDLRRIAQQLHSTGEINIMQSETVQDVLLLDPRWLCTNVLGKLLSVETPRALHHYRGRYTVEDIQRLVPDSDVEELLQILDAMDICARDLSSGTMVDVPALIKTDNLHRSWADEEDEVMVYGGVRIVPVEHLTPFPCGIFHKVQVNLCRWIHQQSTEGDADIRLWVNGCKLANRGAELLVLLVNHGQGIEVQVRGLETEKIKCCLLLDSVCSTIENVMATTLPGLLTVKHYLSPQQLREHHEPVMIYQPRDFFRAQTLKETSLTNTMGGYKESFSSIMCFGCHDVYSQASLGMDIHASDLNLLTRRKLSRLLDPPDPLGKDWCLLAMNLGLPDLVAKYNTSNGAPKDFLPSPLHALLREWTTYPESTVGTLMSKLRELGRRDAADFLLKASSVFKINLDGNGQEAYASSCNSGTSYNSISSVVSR
Sequence of PRKAB1 (Q9Y478 whole entry): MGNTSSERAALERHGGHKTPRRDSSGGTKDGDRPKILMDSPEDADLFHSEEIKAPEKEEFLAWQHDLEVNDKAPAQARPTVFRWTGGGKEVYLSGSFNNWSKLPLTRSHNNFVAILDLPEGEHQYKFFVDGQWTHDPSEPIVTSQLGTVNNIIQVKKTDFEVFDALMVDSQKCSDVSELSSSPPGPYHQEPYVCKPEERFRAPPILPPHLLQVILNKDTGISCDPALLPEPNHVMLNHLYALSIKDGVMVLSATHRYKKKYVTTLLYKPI

COc1ccccc1-c1n[nH]c2nc(N[C@H]3CC[C@H](NS(=O)(=O)CCC(F)(F)F)CC3)nc(OC)c12 [compound 31, 3,3,3-Trifluoro-N-(trans-4-((4-methoxy-3-(2-methoxyphenyl)-1H-pyrazolo[3,4-d]pyrimidin-6-yl)amino)cyclohexyl)propane-1-sulfonamide]
≥ 20 µM: all assays above
